# Experimental data taken from patent EP3587389A1 (INSTYTUT FARMACEUTYCZNY, priority 2018, dated 2020).
# pIC50: −log10 of the molar value.
# Experiments:
# [1] = Oxidation inhibition of the o/w emulsion (lipid peroxidation, TBARS); settings: for o/w emulsion (Inhibition of the oxidation (%)) / o/w emulsion (Inhibition of the oxidation), footnoted symbol: determined at 100 µM, flaxseed oil emulsion, oxidation induced with Mohr's salt, TBARS; for protection against the induced oxidation (in words): o/w emulsion model
# Procedure: The emulsion was prepared according to the method described in Zarnowski R. et al., The oil of Adenanthera pavonina L. seeds and its emulsions. Z Naturforsch C. 2004;59(5-6):321-326; Jaromin A. et al., Emulsions of oil from Adenanthera pavonina L. seeds and their protective effect Cell Mol Biol Lett 2006; 11(3): 438-448). Briefly, 15 mg of sorbitan sesquioleate was added to 50 mg of flaxseed oil and vigorously mixed for 20 min. Then, 2 ml of an aqueous phase consisting of 10 mM Tris-HCl buffer, pH 7.4, was added. The sample was further vortexed for 15 min. and sonicated (Sonics & Materials Inc., Newton, CT, USA) for 10 min. in a coldwater bath. Then, 20 µl of the 1:1 (v/v) buffer diluted emulsion, methanolic solution of each compound (final concentration 100 µM) and 10 mM Tris-HCl buffer, pH 7.4, were mixed and incubated at room temperature for 10 min. To induce oxidation, 100 µl of freshly prepared aqueous solution of ammonium iron(II) sulfate hexahydrate (Mohr's salt) (5 mM) was added (total volume of the sample was 1 ml) and the samples were incubated at room temperature for 15 min. Flaxseed oil emulsion without any compound addition was included as control. After the oxidation step, determination of the thiobarbituric acid reacting substances (TBARS) was performed (Buege J.A., Aust S.D., Microsomal lipid peroxidation. Methods Enzymol. 1978;52:302-310). 2 ml of the thiobarbituric acid (TBA) reagent (15% trichloroacetic acid, 0.25 N HCl and 0.5% TBA) was added to each sample, mixed and heated at 100°C for 30 min. After centrifugation at 13 000 rpm for 10 min, the absorbance of the supernatants was measured at 535 nm. The obtained values were used to calculate the % of the oxidation inhibition according to the following equation: Inhibition of the oxidation (%) = [1−(absorbance of the sample/absorbance of control)] × 100 [formula]
# [2] = DPPH free radical scavenging assay; settings: for pIC50: 30 min at room temperature, absorbance at 517 nm; for scavenging abilities (in words): DPPH assay
# Procedure: J Nat Prod. 2010 Feb 26; 73(2): 252-4. doi: 10.1021/np900519d.) with a modification. Briefly, different concentrations of the compounds (100 µl) were mixed with 900 µl of the 0.04 mg/ml methanolic solution of DPPH. The mixture was kept at room temperature for 30 min, and then the absorbance at 517 nm was measured. The half maximal inhibitory concentration (IC50) was used as an indicating measure of the scavenging activity.
pIC50 [2],SMILES,o/w emulsion (Inhibition of the oxidation (%)) [1],"o/w emulsion (Inhibition of the oxidation), footnoted symbol [1]",scavenging abilities (in words) [2],protection against the induced oxidation (in words) [1]
4.49,"O=C(O)/C=C/c1ccc(O)c(O)c1 [CA, Caffeic acid]",26.1 ± 2.9%,,,
< 2.30,"COC(=O)/C=C/c1cccc(O)c1 [Compound 10, 3-(3'-Hydroxyphenyl)-(E)-propenoic acid methyl ester]",18.4 ± 2.2%,,no scavenging abilities,
2.99,"COC(=O)/C=C/c1ccc(O)cc1O [Compound 11, 3-(2',4'-dihydroxyphenyl)-(E)-propenoic acid methyl ester]",33.7 ± 6.5%,,,
4.73,"COC(=O)/C=C/c1ccc(O)c(O)c1O [Compound 12, 3-(2',3',4'-trihydroxyphenyl)-(E)-propenoic acid methyl ester]",55.5 ± 2%,,,highest protection against the induced oxidation
4.27,"COC(=O)/C=C/c1cc(O)c(O)cc1O [Compound 13, 3-(2',4',5'-trihydroxyphenyl)-(E)-propenoic acid methyl ester]",38.6 ± 2.3%,,,highest protection against the induced oxidation
3.16,"CC(=O)/C=C/c1ccc(O)cc1O [Compound 17, 4-(2',4'-dihydroxyphenyl)-3(E)-buten-2-one]",4.6 ± 1.3%,,,
4.77,"CC(=O)/C=C/c1ccc(O)c(O)c1O [Compound 18, 4-(2',3',4'-trihydroxyphenyl)-3(E)-buten-2-one]",28.6 ± 4%,,,highest protection against the induced oxidation

# Second part, the compound before the results:
SMILES,pIC50 [2],o/w emulsion (Inhibition of the oxidation (%)) [1],"o/w emulsion (Inhibition of the oxidation), footnoted symbol [1]",scavenging abilities (in words) [2],protection against the induced oxidation (in words) [1]
"CC(=O)/C=C/c1ccccc1O [Compound 6, 4-(2'-hydroxyphenyl)-3(E)-buten-2-one]",< 2.30,,n.a.^b (no protection detected),no scavenging abilities,
"COC(=O)/C=C/c1ccc(O)cc1 [Compound 8, 3-(4'-Hydroxyphenyl)-(E)-propenoic acid methyl ester]",< 2.30,22.7 ± 6.4%,,no scavenging abilities,
"COC(=O)/C=C/c1ccccc1O [Compound 9, 3-(2'-Hydroxyphenyl)-(E)-propenoic acid methyl ester]",< 2.30,2.6 ± 1.5%,,no scavenging abilities,
"COC(=O)/C=C/c1ccc(O)c(OC)c1 [Compound 14, 3-(4'-hydroxy-3-metoxyphenyl)-(E)-propenoic acid methyl ester]",4.23,14.8 ± 2%,,,
"CC(=O)/C=C/c1cccc(O)c1 [Compound 15, 4-(3'-hydroxyphenyl)-3(E)-buten-2-one]",,,n.a.^b (no protection detected),no scavenging abilities,
"CC(=O)/C=C/c1ccc(O)cc1 [Compound 16, 4-(4'-hydroxyphenyl)-3(E)-buten-2-one]",< 2.30,6.8 ± 4.4%,,no scavenging abilities,
"COc1cc(/C=C/C(C)=O)ccc1O [Compound 20, 4-(3'-methoxy-4'-hydroxyphenyl)-3(E)-buten-2-one]",4.21,7.9 ± 2.1%,,,
